Source: paper PMC4303209, “A novel phosphatidylinositol 3-kinase (PI3K) inhibitor directs a potent FOXO-dependent, p53-independent cell cycle arrest phenotype characterized by the differential induction of a subset of FOXO-regulated genes” (Breast Cancer Research : BCR, 2014)

Tested on: MCF-7 breast cancer cells
Test: Microarray gene expression analysis (Agilent whole human genome 4 x 44K; compound vs DMSO, LIMMA log2 fold change)
Format: cell-based

## Cn1ncc2c(N3CCOCC3)nc(-c3cccc(O)c3)nc21 [ETP-45658]
  PRNP log2FC: 0.370
  log2FC: 0.370
Apoptosis genes, Gene 16
  AARS log2FC: -0.198
Apoptosis genes, Gene 25
  ABL1 log2FC: -0.156
Apoptosis genes, Gene 29
  ABR log2FC: -0.380
Apoptosis genes, Gene 81
  ACTN4 log2FC: -0.260
Apoptosis genes, Gene 87
  ACTN1 log2FC: -0.609
Apoptosis genes, Gene 88
  ACTN2 log2FC: 0.099
Apoptosis genes, Gene 89
  ACTN3 log2FC: -0.693
Apoptosis genes, Gene 90
  ACVR1 log2FC: 0.534
Apoptosis genes, Gene 91
  ACVR1B log2FC: -0.563
Apoptosis genes, Gene 100
  ADA log2FC: -0.213
Apoptosis genes, Gene 101
  ADAM8 log2FC: -0.364
Apoptosis genes, Gene 103
  ADAR log2FC: -0.197
Apoptosis genes, Gene 116
  ADCYAP1 log2FC: 0.068
Apoptosis genes, Gene 118
  ADD1 log2FC: -0.295
Apoptosis genes, Gene 133
  ADM log2FC: -0.856
Apoptosis genes, Gene 134
  ADORA1 log2FC: -2.012
Apoptosis genes, Gene 135
  ADORA2A log2FC: -0.309
Apoptosis genes, Gene 153
  ADRB1 log2FC: -0.090
Apoptosis genes, Gene 166
  AES log2FC: -0.293
Apoptosis genes, Gene 183
  AGT log2FC: -0.104
Apoptosis genes, Gene 196
  AHR log2FC: 0.995
Apoptosis genes, Gene 207
  AKT1 log2FC: -0.608
Apoptosis genes, Gene 208
  AKT2 log2FC: -0.554
Apoptosis genes, Gene 220
  ALDH1A3 log2FC: 0.149
Apoptosis genes, Gene 230
  ALDOC log2FC: -0.120
Apoptosis genes, Gene 238
  ALK log2FC: -0.050
Apoptosis genes, Gene 247
  ALOX15B log2FC: -0.102
Apoptosis genes, Gene 284
  ANGPT1 log2FC: -0.676
Apoptosis genes, Gene 291
  SLC25A4 log2FC: -0.331
Apoptosis genes, Gene 292
  SLC25A5 log2FC: 0.173
Apoptosis genes, Gene 301
  ANXA1 log2FC: 0.991
Apoptosis genes, Gene 307
  ANXA4 log2FC: 0.463
Apoptosis genes, Gene 308
  ANXA5 log2FC: 0.266
Apoptosis genes, Gene 317
  APAF1 log2FC: 0.550
Apoptosis genes, Gene 318
  NUDT2 log2FC: 0.291
Apoptosis genes, Gene 323
  APBB2 log2FC: -0.357
Apoptosis genes, Gene 324
  APC log2FC: 0.117
Apoptosis genes, Gene 330
  BIRC3 log2FC: -0.843
Apoptosis genes, Gene 332
  BIRC5 log2FC: 0.154
Apoptosis genes, Gene 333
  APLP1 log2FC: -0.281
Apoptosis genes, Gene 348
  APOE log2FC: -0.224
Apoptosis genes, Gene 351
  APP log2FC: 0.379
Apoptosis genes, Gene 356
  FASLG log2FC: -0.198
Apoptosis genes, Gene 359
  AQP2 log2FC: -0.102
Apoptosis genes, Gene 367
  AR log2FC: 0.203
Apoptosis genes, Gene 369
  ARAF log2FC: -0.542
Apoptosis genes, Gene 382
  ARF6 log2FC: -0.682
Apoptosis genes, Gene 388
  RHOB log2FC: -0.133
Apoptosis genes, Gene 393
  ARHGAP4 log2FC: -0.218
Apoptosis genes, Gene 396
  ARHGDIA log2FC: -1.118
Apoptosis genes, Gene 409
  ARRB2 log2FC: 0.237
Apoptosis genes, Gene 429
  ASCL1 log2FC: -0.107
Apoptosis genes, Gene 440
  ASNS log2FC: -0.404
Apoptosis genes, Gene 468
  ATF4 log2FC: 0.324
Apoptosis genes, Gene 472
  ATM log2FC: 0.117
Apoptosis genes, Gene 487
  ATP2A1 log2FC: 0.239
Apoptosis genes, Gene 551
  AVP log2FC: -0.579
Apoptosis genes, Gene 558
  AXL log2FC: -0.230
Apoptosis genes, Gene 566
  AZU1 log2FC: -0.123
Apoptosis genes, Gene 572
  BAD log2FC: 0.276
Apoptosis genes, Gene 573
  BAG1 log2FC: 1.170
Apoptosis genes, Gene 578
  BAK1 log2FC: -0.356
Apoptosis genes, Gene 580
  BARD1 log2FC: 0.487
Apoptosis genes, Gene 581
  BAX log2FC: -0.255
Apoptosis genes, Gene 596
  BCL2 log2FC: -0.310
Apoptosis genes, Gene 597
  BCL2A1 log2FC: -0.192
Apoptosis genes, Gene 598
  BCL2L1 log2FC: -0.991
Apoptosis genes, Gene 599
  BCL2L2 log2FC: 0.428
Apoptosis genes, Gene 602
  BCL3 log2FC: -0.569
Apoptosis genes, Gene 604
  BCL6 log2FC: 0.771
Apoptosis genes, Gene 627
  BDNF log2FC: -0.132
Apoptosis genes, Gene 637
  BID log2FC: -0.095
Apoptosis genes, Gene 638
  BIK log2FC: -0.815
Apoptosis genes, Gene 641
  BLM log2FC: 0.293
Apoptosis genes, Gene 652
  BMP4 log2FC: 0.407
Apoptosis genes, Gene 655
  BMP7 log2FC: -0.344
Apoptosis genes, Gene 658
  BMPR1B log2FC: -0.091
Apoptosis genes, Gene 660
  BMX log2FC: 0.114
Apoptosis genes, Gene 662
  BNIP1 log2FC: 0.672
Apoptosis genes, Gene 663
  BNIP2 log2FC: 0.527
Apoptosis genes, Gene 664
  BNIP3 log2FC: 0.774
Apoptosis genes, Gene 665
  BNIP3L log2FC: 1.085
Apoptosis genes, Gene 668
  FOXL2 log2FC: -0.812
Apoptosis genes, Gene 672
  BRCA1 log2FC: 0.792
Apoptosis genes, Gene 673
  BRAF log2FC: -0.105
Apoptosis genes, Gene 675
  BRCA2 log2FC: 0.092
Apoptosis genes, Gene 685
  BTC log2FC: 0.205
Apoptosis genes, Gene 694
  BTG1 log2FC: 1.142
Apoptosis genes, Gene 699
  BUB1 log2FC: 0.803
Apoptosis genes, Gene 701
  BUB1B log2FC: 0.344
Apoptosis genes, Gene 706
  TSPO log2FC: -0.089
Apoptosis genes, Gene 728
  C5AR1 log2FC: 0.064
Apoptosis genes, Gene 773
  CACNA1A log2FC: -0.187
Apoptosis genes, Gene 811
  CALR log2FC: -0.081
Apoptosis genes, Gene 816
  CAMK2B log2FC: -0.123
Apoptosis genes, Gene 831
  CAST log2FC: 0.572
Apoptosis genes, Gene 834
  CASP1 log2FC: 0.048
Apoptosis genes, Gene 835
  CASP2 log2FC: -0.918
Apoptosis genes, Gene 836
  CASP3 log2FC: 0.546
Apoptosis genes, Gene 837
  CASP4 log2FC: 0.181
Apoptosis genes, Gene 838
  CASP5 log2FC: -0.128
Apoptosis genes, Gene 839
  CASP6 log2FC: 0.574
Apoptosis genes, Gene 840
  CASP7 log2FC: -0.211
Apoptosis genes, Gene 841
  CASP8 log2FC: 0.613
Apoptosis genes, Gene 842
  CASP9 log2FC: 0.372
Apoptosis genes, Gene 846
  CASR log2FC: 0.039
Apoptosis genes, Gene 847
  CAT log2FC: 0.577
Apoptosis genes, Gene 857
  CAV1 log2FC: 0.205
Apoptosis genes, Gene 864
  RUNX3 log2FC: -0.494
Apoptosis genes, Gene 867
  CBL log2FC: 0.301
Apoptosis genes, Gene 875
  CBS log2FC: -0.275
Apoptosis genes, Gene 889
  KRIT1 log2FC: 0.668
Apoptosis genes, Gene 900
  CCNG1 log2FC: 0.908
Apoptosis genes, Gene 914
  CD2 log2FC: -0.352
Apoptosis genes, Gene 916
  CD3E log2FC: -0.399
Apoptosis genes, Gene 917
  CD3G log2FC: -0.295
Apoptosis genes, Gene 921
  CD5 log2FC: -0.055
Apoptosis genes, Gene 922
  CD5L log2FC: -0.110
Apoptosis genes, Gene 929
  CD14 log2FC: -0.514
Apoptosis genes, Gene 940
  CD28 log2FC: 0.087
Apoptosis genes, Gene 958
  CD40 log2FC: -0.420
Apoptosis genes, Gene 960
  CD44 log2FC: -0.380
Apoptosis genes, Gene 966
  CD59 log2FC: 0.286
Apoptosis genes, Gene 972
  CD74 log2FC: -0.135
Apoptosis genes, Gene 997
  CDC34 log2FC: 0.349
Apoptosis genes, Gene 998
  CDC42 log2FC: 0.143
Apoptosis genes, Gene 1019
  CDK4 log2FC: 0.113
Apoptosis genes, Gene 1026
  CDKN1A log2FC: -1.401
Apoptosis genes, Gene 1027
  CDKN1B log2FC: 1.129
Apoptosis genes, Gene 1029
  CDKN2A log2FC: 0.240
Apoptosis genes, Gene 1032
  CDKN2D log2FC: 0.891
Apoptosis genes, Gene 1051
  CEBPB log2FC: -0.358
Apoptosis genes, Gene 1072
  CFL1 log2FC: -0.261
Apoptosis genes, Gene 1075
  CTSC log2FC: -0.466
Apoptosis genes, Gene 1082
  CGB log2FC: -0.136
Apoptosis genes, Gene 1191
  CLU log2FC: -0.261
Apoptosis genes, Gene 1201
  CLN3 log2FC: -0.330
Apoptosis genes, Gene 1236
  CCR7 log2FC: 0.098
Apoptosis genes, Gene 1263
  PLK3 log2FC: -1.808
Apoptosis genes, Gene 1268
  CNR1 log2FC: 0.800
Apoptosis genes, Gene 1386
  ATF2 log2FC: 0.857
Apoptosis genes, Gene 1392
  CRH log2FC: 0.120
Apoptosis genes, Gene 1396
  CRIP1 log2FC: 0.282
Apoptosis genes, Gene 1409
  CRYAA log2FC: -0.057
Apoptosis genes, Gene 1410
  CRYAB log2FC: -0.139
Apoptosis genes, Gene 1432
  MAPK14 log2FC: -0.291
Apoptosis genes, Gene 1434
  CSE1L log2FC: 0.841
Apoptosis genes, Gene 1437
  CSF2 log2FC: -0.666
Apoptosis genes, Gene 1457
  CSNK2A1 log2FC: -0.545
Apoptosis genes, Gene 1459
  CSNK2A2 log2FC: 0.183
Apoptosis genes, Gene 1476
  CSTB log2FC: 0.083
Apoptosis genes, Gene 1482
  NKX2-5 log2FC: -0.753
Apoptosis genes, Gene 1490
  CTGF log2FC: -0.597
Apoptosis genes, Gene 1491
  CTH log2FC: 0.708
